The values that follow are results of earlier work, collected in patent publication US20200138845A1, “Combination Drug Therapy” (ViiV Healthcare Company, priority 2017, published 2020).

This series concerns HIV-1 strains. The conditions noted are these: antiviral activity against a broad range of HIV-1 strains.

As to `C[C@H]1CO[C@@H]2Cn3cc(C(=O)NCc4ccc(F)cc4F)c(=O)c(O)c3C(=O)N12` [Cabotegravir, cabotegravir], the potency entry is listed as “subnanomolar”.
